According to PMC12299203, “Pyrrolopyrimidines: Design, Synthesis and Antitumor Properties of Novel Tricyclic Pyrrolo [2,3-d]pyrimidine Derivatives” (Molecules, 2025):
Where two headings read alike, the source gives them in different places.

Legend:
[1] = system: HeLa (cervical) cell line; experiment: MTT cytotoxic activity assay, HeLa; assay type: cell-based, human; conditions: 72 h; for IC50: Homo sapiens, HeLa
Experimental: (§1) All the synthesized tricyclic pyrrolo[2,3-d]pyrimidines 8a–j and 10a–f were evaluated for their cytotoxic activity on cancer cell lines derived from the most common cancers: breast (MCF-7), cervical (HeLa), and colon (HT-29). Human cancer cell lines were treated with synthesized compounds, using doxorubicin (DOX) as a positive control, at concentrations of the compounds ranging from 0.001 to 6.561 μM. Cells were incubated at 37 °C for 72 h before measurement, and IC50 values were determined graphically. In our previous research, the cytotoxic activity of compounds 6a and 6b was also evaluated on the same human cancer cell lines used in the current study.
(§2) The MCF-7, HeLa, and HT-29 cell lines, obtained from the Chinese Type Culture Collection, CAS (Shanghai, China), were used as models for cytotoxicity screening. The samples were dissolved in dimethyl sulfoxide (DMSO) (50 μM) and stored at 4 °C. Cell viability was determined using the MTT assay. For the MTT assay, the target cells were seeded in 96-well plates and treated with the synthesized samples for 72 h. Then, 5 mg/mL MTT was added to the culture medium, and 10 μL/well was added. The plate was then incubated in the dark at 37 °C for 4 h. The medium was removed, and 100 μL of dimethyl sulfoxide was added per well. OD570 was measured using Spectra Max M5 (Molecular Devices, CA, USA). Cell viability (%) = ODcompound /ODDMSO × 100%. IC50 values were calculated using GraphPad Prism 9 (CA, USA) by nonlinear regression of the log-transformed data (X Log[X]), with the log (inhibitor) vs. normalized response-variable slope tool.

[2] = system: HeLa, MCF-7 and HT-29 cell lines; experiment: MTT cytotoxic activity, stated across the three cancer cell lines; assay type: cell-based, human; conditions: span over HeLa, MCF-7, HT-29; for IC50: Homo sapiens, read-out: IC50 across all three cell lines
Experimental: as §1, §2

[3] = system: HT-29 (colon) cell line; experiment: MTT cytotoxic activity assay, HT-29; assay type: cell-based; conditions: Homo sapiens, 72 h
Experimental: as §1, §2

[4] = system: MCF-7 (breast) cell line; experiment: MTT cytotoxic activity assay, MCF-7; assay type: cell-based, human; conditions: for IC50: Homo sapiens, MCF7, 72 h
Experimental: as §1, §2

[5] = system: human embryonic kidney (HEK-293) cells; experiment: Cytotoxicity on non-cancerous HEK-293 cells; assay type: cell-based; conditions: HEK293, read-out: IC50 (±SD), HEK-293
Experimental: On the other hand, the inactivity of these leads on HeLa and MCF-7 cells (IC50 ≥ 50 µM) indicates specific tumor type selectivity. […] The selectivity index (SI) was then calculated as the ratio of the IC50 values for HEK-293 and HT-29 cells and is shown in Table 2.
as §2

[6] = system: HeLa (cervical) cell line; design: method as in PMID 36197552; conditions: previous research ref 29; cited from earlier work
[7] = system: HT-29 (colon) cell line; design: method as in PMID 36197552; conditions: previous research ref 29; cited from earlier work

Structure (SMILES) | IC50 [1] | IC50 [3] | IC50 [4] | further results
COc1cccc2c1C(=O)c1c(O)c3c(c(O)c1C2=O)C[C@@](O)(C(=O)CO)C[C@@H]3O[C@H]1C[C@H](N)[C@H](O)[C@H](C)O1 [DOX, doxorubicin, reference compound] | 0.94 ± 0.016 µM | 0.82 ± 0.029 µM | 0.18 ± 0.011 µM | IC50 [2]: 0.18 to 0.94 µM
Cn1c(-c2ccc(Br)cc2)cc2/c(=N\c3ccc(Cl)cc3)n3c(nc21)CCCCC3 [Compound 8h, (E)-2-(4-Bromophenyl)-N-(4-chlorophenyl)-1-methyl-1,6,7,8,9,10-hexahydro-4H-pyrrolo[2’,3’:4,5]pyrimido[1,2-a]azepin-4-imine] | ≥ 50 µM | ≥ 50 µM | ≥ 50 µM | 
Cn1c(-c2ccc(Cl)cc2)cc2/c(=N\c3ccccc3)n3c(nc21)CCCC3 [Compound 8a, (E)-2-(4-Chlorophenyl)-1-methyl-N-phenyl-6,7,8,9-tetrahydropyrido[1,2-a]pyrrolo[2,3-d]pyrimidin-4(1H)-imine] | ≥ 50 µM | 19.2 ± 0.91 µM | ≥ 50 µM | 
Cn1c(-c2ccc(Cl)cc2)cc2/c(=N\c3ccc(Cl)cc3)n3c(nc21)CCCC3 [Compound 8c, (E)-N,2-Bis(4-chlorophenyl)-1-methyl-6,7,8,9-tetrahydropyrido[1,2-a]pyrrolo[2,3-d]pyrimidin-4(1H)-imine] | ≥ 50 µM | ≥ 50 µM | ≥ 50 µM | 
Cn1c(-c2ccc(Cl)cc2)cc2/c(=N\c3ccc(F)cc3)n3c(nc21)CCCC3 [Compound 8b, (E)-2-(4-Chlorophenyl)-N-(4-fluorophenyl)-1-methyl-6,7,8,9-tetrahydropyrido[1,2-a]pyrrolo[2,3-d]pyrimidin-4(1H)-imine] | ≥ 50 µM | ≥ 50 µM | ≥ 50 µM | 
Cn1c(-c2ccc(Br)cc2)cc2/c(=N\c3ccccc3)n3c(nc21)CCCCC3 [Compound 8f, (E)-2-(4-Bromophenyl)-1-methyl-N-phenyl-1,6,7,8,9,10-hexahydro-4H-pyrrolo[2’,3’:4,5]pyrimido[1,2-a]azepin-4-imine] | ≥ 50 µM | 4.55 ± 0.23 µM | ≥ 50 µM | IC50 [5]: 195 ± 0.07 µM
Cn1c(-c2ccc(Br)cc2)cc2c(=O)n3c(nc21)CCCCC3 [Compound 6b, 2-(4-Bromophenyl)-1-methyl-1,6,7,8,9,10-hexahydro-4H-pyrrolo[2’,3’:4,5]pyrimido[1,2-a]azepin-4-one] |  |  |  | IC50 [6]: ≥ 50 µM; IC50 [7]: 7.61 ± 0.31 µM
Cn1c(-c2ccc(Cl)cc2)cc2/c(=N\c3ccc(C(F)(F)F)cc3)n3c(nc21)CCCC3 [Compound 8e, (E)-2-(4-Chlorophenyl)-1-methyl-N-(4-(trifluoromethyl)phenyl)-6,7,8,9-tetrahydropyrido[1,2-a]pyrrolo[2,3-d]pyrimidin-4(1H)-imine] | ≥ 50 µM | ≥ 50 µM | ≥ 50 µM | 
Cn1c(-c2ccc(Cl)cc2)cc2c(=O)n3c(nc21)CCCC3 [Compound 6a, 2-(4-Chlorophenyl)-1-methyl-6,7,8,9-tetrahydropyrido[1,2-a]pyrrolo[2,3-d]pyrimidin-4(1H)-one] |  |  |  | IC50 [6]: 6.55 ± 0.31 µM; IC50 [7]: 24 ± 0.47 µM
Cn1c(-c2ccc(Br)cc2)c(I)c2c(=O)n3c(nc21)CCCCC3 [Compound 10f, 2-(4-Bromophenyl)-3-iodo-1-methyl-1,6,7,8,9,10-hexahydro-4H-pyrrolo[2’,3’:4,5]pyrimido[1,2-a]azepin-4-one] | ≥ 50 µM | 19 ± 0.92 µM | ≥ 50 µM | IC50 across all three cell lines [2]: selective yet weaker activity
Cn1c(-c2ccc(Cl)cc2)c(Br)c2c(=O)n3c(nc21)CCCC3 [Compound 10b, 3-Bromo-2-(4-chlorophenyl)-1-methyl-6,7,8,9-tetrahydropyrido[1,2-a]pyrrolo[2,3-d]pyrimidin-4(1H)-one] | ≥ 50 µM | ≥ 50 µM | 20.1 ± 0.93 µM | IC50 across all three cell lines [2]: selective yet weaker activity; IC50, MCF-7 ([4]; 72 h): moderate activity
Cn1c(-c2ccc(Cl)cc2)cc2/c(=N\c3ccc(Br)cc3)n3c(nc21)CCCC3 [Compound 8d, (E)-N-(4-Bromophenyl)-2-(4-chlorophenyl)-1-methyl-6,7,8,9-tetrahydropyrido[1,2-a]pyrrolo[2,3-d]pyrimidin-4(1H)-imine] | ≥ 50 µM | ≥ 50 µM | ≥ 50 µM | 
Cn1c(-c2ccc(Br)cc2)c(Cl)c2c(=O)n3c(nc21)CCCCC3 [Compound 10d, 2-(4-Bromophenyl)-3-chloro-1-methyl-1,6,7,8,9,10-hexahydro-4H-pyrrolo[2’,3’:4,5]pyrimido[1,2-a]azepin-4-one] | ≥ 50 µM | ≥ 50 µM | ≥ 50 µM | 
Cn1c(-c2ccc(Cl)cc2)c(I)c2c(=O)n3c(nc21)CCCC3 [Compound 10c, 2-(4-Chlorophenyl)-3-iodo-1-methyl-6,7,8,9-tetrahydropyrido[1,2-a]pyrrolo[2,3-d]pyrimidin-4(1H)-one] | ≥ 50 µM | 34.2 ± 1.6 µM | ≥ 50 µM | IC50 across all three cell lines [2]: selective yet weaker activity
Cn1c(-c2ccc(Br)cc2)c(Br)c2c(=O)n3c(nc21)CCCCC3 [Compound 10e, 3-Bromo-2-(4-bromophenyl)-1-methyl-1,6,7,8,9,10-hexahydro-4H-pyrrolo[2’,3’:4,5]pyrimido[1,2-a]azepin-4-one] | ≥ 50 µM | 16 ± 0.75 µM | ≥ 50 µM | IC50 across all three cell lines [2]: selective yet weaker activity
Cn1c(-c2ccc(Br)cc2)cc2/c(=N\c3ccc(C(F)(F)F)cc3)n3c(nc21)CCCCC3 [Compound 8j, (E)-2-(4-Bromophenyl)-1-methyl-N-(4-(trifluoromethyl)phenyl)-1,6,7,8,9,10-hexahydro-4H-pyrrolo[2’,3’:4,5]pyrimido[1,2-a]azepin-4-imine] | ≥ 50 µM | ≥ 50 µM | ≥ 50 µM | 
Cn1c(-c2ccc(Cl)cc2)c(Cl)c2c(=O)n3c(nc21)CCCC3 [Compound 10a, 3-Chloro-2-(4-chlorophenyl)-1-methyl-6,7,8,9-tetrahydropyrido[1,2-a]pyrrolo[2,3-d]pyrimidin-4(1H)-one] | 22.8 ± 0.98 µM | 24.7 ± 1.13 µM | 27.5 ± 1.07 µM | IC50, HeLa [1]: moderate activity; IC50 [2]: 23 to 28 µM
Cn1c(-c2ccc(Br)cc2)cc2/c(=N\c3ccc(Br)cc3)n3c(nc21)CCCCC3 [Compound 8i, (E)-N,2-Bis(4-bromophenyl)-1-methyl-1,6,7,8,9,10-hexahydro-4H-pyrrolo[2’,3’:4,5]pyrimido[1,2-a]azepin-4-imine] | ≥ 50 µM | ≥ 50 µM | ≥ 50 µM | 
Cn1c(-c2ccc(Br)cc2)cc2/c(=N\c3ccc(F)cc3)n3c(nc21)CCCCC3 [Compound 8g, (E)-2-(4-Bromophenyl)-N-(4-fluorophenyl)-1-methyl-1,6,7,8,9,10-hexahydro-4H-pyrrolo[2’,3’:4,5]pyrimido[1,2-a]azepin-4-imine] | ≥ 50 µM | 4.01 ± 0.2 µM | ≥ 50 µM | IC50 [5]: 169 ± 0.1 µM
